Results published in patent US4665095A, “Use of 2-[(3,5-dihalo-4-aminobenzyl)]imidazolines to stimulate alpha-1 adrenergic receptors and to treat nasal congestion” (Abbott Laboratories, priority 1985, dated 1987).
Structures can show the parent of a compound that is named as a salt.

How the values were obtained:
[1] = Blood pressure and heart rate in anesthetized dogs following intranasal spray administration; format: in vivo, beagle dog
Protocol: (§1) a. Method Beagle dogs of either sex, weighing 9-12 kg were anesthetized with nembutal (30 mg/kg, intravenously) with supplemental doses administered throughout the experiment as required. The dogs were intubated with a cuffed endotracheal tube and were ventilated with room air by means of a Harvard respiration pump. Arterial blood pressure was recorded from a femoral artery using a Statham P23Gb pressure transducer. A tachygraphic recording of heart rate was obtained from the blood pressure signal.
(§2) A constant flow of air (2 liters/minute); provided by an anesthetic machine (CAECO) was administered into a nasal cavity through a 6 cm long plastic tube tapered to a diameter of 6 mm to fit into the right nostril. The air perfused the nasal cavity and exited through the mouth. The resistance to the air flow exerted by the large surface area of the nasal mucosa was measured as a nasal pressure in cm of water, using Model MP 45 Validyne transducer. […] Since the amount of drug administered in this way is extremely small and not directly measurable, the doses were calculated from the concentration of drug in the humidifier and volume of fluid used in each administration (in mg per dog). The nasal resistance, heart rate and blood pressure were monitored prior to and then 2 hours following the drug administration. […]

nasal mucosa of rats = assay: Effect on Nasal Irritation in Rats; format: in vivo, rat (CD strain)
Protocol: The product of Example 4 was dissolved in phosphate buffered normal saline and adjusted to a pH of approximately 7. The solution was prepared at the following concentrations: 0.05, 0.15, 0.5 and 1.5 percent. Groups of five male rats (CD strain) were administered each dose. The rats were approximately 5 weeks old at the start of treatment. Prior to dosing, ketaminehydrochloride was administered intraperitoneally to produce transient anesthesia to facilitate test compound administration. Rats in each group were given 0.04 mL/day of the appropriate solution for 14 days. The dosage was divided equally between both nostrils (i.e., 0.02 mL/nostril/day).

[2] = test system: nasal resistance in anesthetized dogs; assay: Effect on airway (nasal) resistance in anesthetized dogs following intranasal spray administration; format: in vivo, beagle dog; conditions: aerosol, mg per dog
Protocol: as §1, §2

nasal mucosa = conditions: background art; cited from earlier work
[3] = up to 1.5%, 0.04 mL/day intranasal, 14 days

Row | SMILES | systematic hemodynamic effects ([1]; at the effective nasal decongestant dose) | elevation of the blood pressure above the base level ([1]; highest tested dose, 1.65 mg) | nasal mucosal injury (nasal mucosa of rats; [3]) | systemic toxic effects (nasal mucosa of rats; [3]) | threshold dose producing decrease of nasal resistance [2] [mg] | irritation of the nasal mucosa (nasal mucosa) | toxicity or nasal injury (nasal mucosa of rats; 0.05% to 0.15% concentrations) | nasal mucosal injury (nasal mucosa of rats; 0.5% and 1.5% concentration) | systemic side effects and deaths (nasal mucosa of rats; 0.5% and 1.5%, repeated administration)
1 | Nc1c(Cl)cc(CC2=NCCN2)cc1Cl [Example 4, 2-[(3,5-Dichloro-4-aminobenzyl)]imidazoline hydrochloride] | devoid of any systematic hemodynamic effects | approximately 10% | no nasal mucosal injury | no nasal mucosal injury or any systemic toxic effects | 0.00165 |  |  |  | 
2 | c1ccc2c(CC3=NCCN3)cccc2c1 [naphazoline] |  |  |  |  |  | often cause irritation of the nasal mucosa |  |  | 
3 | Cc1cc(C(C)(C)C)c(O)c(C)c1CC1=NCCN1 [oxymetazoline] |  |  |  |  |  | often cause irritation of the nasal mucosa | did not cause any toxicity or nasal injury | induced nasal mucosal injury | Systemic side effects and deaths occurred in most animals
